Like-named read-outs stand apart in the source and are kept apart here.
Assays:
in vitro [1] = assay: in vitro; design: species or system HB2, HEK293; conditions: human, ccd841 cells
PCAF = target: T1, PCAF (Homo sapiens, UniProt Q92831); design: Intact protein LC/MS covalent labelling, fragments in pools of five, 200 uM each, 4 °C; conditions: 24 h, 4 °C, pool of five; 200 µM; covalent
T1 construct: gene KAT2B
Experimental: (§1) Incubations were performed at 200 μM for each compound and 2 μM of protein (10 μM for BSA) for 24 h at 4 °C with moderate shaking. Incubation buffers varied among proteins (PBS pH 7.4 for QSOX1 and BSA; 10 mM HEPES pH 7.5, 0.3 M NaCl, 0.5 mM TCEP for PCAF, UPS8, and NUDT7; […]; 10 mM Na2HPO4 pH 7.5 100 mM NaCl 5 mM β-mercaptoethanol for NV3CP; 20 mM Na phosphate pH 7.5 for NNMT; […]. The reaction was stopped by quenching with formic acid, 0.4% final concentration. Each protein was incubated with the electrophilic library in pools of five compounds per well. The pool’s composition maximized the difference in mass between fragments in the same well. Incubations were performed with each fragment at 200 μM, for 24 h at 4 °C, to allow the screening of proteins that are not stable for long time periods at higher temperatures. Following incubation, we used intact protein [compound left out] chromatography/mass spectrometry (LC/MS) to identify the fragments and quantify their labeling (Figure 3A). […] There was good agreement between the percent of labeling of NUDT7 by 100 random individual compounds and that obtained in pools of five (R^2=0.78; Figure S6 and Data set 2 in the Supporting Information).

OTUB2 (OTUB2A) = target: T2, OTUB2 (OTUB2A) (Homo sapiens, UniProt Q96DC9); design: Intact protein LC/MS covalent labelling, fragments in pools of five, 200 uM each, 4 °C; conditions: 24 h, 4 °C, pool of five; 200 µM; covalent
T2 construct: full length residues 1-234, E. coli BL21(DE3)-R3, His tag removed by TEV, construct 27312 Da
T2 sequence (Q96DC9 1-234): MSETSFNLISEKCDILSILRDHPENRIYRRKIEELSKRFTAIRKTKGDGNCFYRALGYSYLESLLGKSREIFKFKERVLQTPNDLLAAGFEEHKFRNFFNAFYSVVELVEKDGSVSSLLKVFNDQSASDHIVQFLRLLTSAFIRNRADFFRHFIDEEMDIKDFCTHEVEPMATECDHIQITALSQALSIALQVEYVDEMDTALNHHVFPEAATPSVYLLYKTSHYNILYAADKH
Experimental: as §1

BSA = target: T3, BSA (Bos taurus, UniProt P02769); design: Intact protein LC/MS covalent labelling, fragments in pools of five, 200 uM each, 4 °C; conditions: 24 h, 4 °C, pool of five; 200 µM; covalent
T3 construct: gene ALB
T3 sequence (P02769 whole entry, the tested form may be a part): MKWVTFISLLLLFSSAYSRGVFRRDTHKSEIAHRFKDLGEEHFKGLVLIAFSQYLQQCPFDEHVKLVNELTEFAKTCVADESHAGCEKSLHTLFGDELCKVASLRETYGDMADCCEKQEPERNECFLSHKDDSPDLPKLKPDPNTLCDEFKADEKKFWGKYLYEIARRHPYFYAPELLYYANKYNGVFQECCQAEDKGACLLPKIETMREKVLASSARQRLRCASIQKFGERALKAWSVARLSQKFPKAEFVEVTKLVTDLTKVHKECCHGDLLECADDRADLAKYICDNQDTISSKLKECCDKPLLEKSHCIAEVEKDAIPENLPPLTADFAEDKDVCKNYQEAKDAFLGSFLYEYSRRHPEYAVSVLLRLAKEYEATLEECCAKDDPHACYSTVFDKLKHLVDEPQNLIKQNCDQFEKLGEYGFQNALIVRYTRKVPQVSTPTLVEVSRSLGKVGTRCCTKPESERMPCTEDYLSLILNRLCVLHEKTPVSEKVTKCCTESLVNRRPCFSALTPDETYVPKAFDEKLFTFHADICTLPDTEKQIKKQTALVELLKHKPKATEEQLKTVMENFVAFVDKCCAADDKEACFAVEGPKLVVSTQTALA
Experimental: as §1

NUDT7 = target: T4, NUDT7 (Homo sapiens, UniProt P0C024); design: Intact protein LC/MS covalent labelling, fragments in pools of five, 200 uM each, 4 °C; conditions: 24 h, 4 °C, pool of five; 200 µM; covalent
T4 construct: residues 14-235, E. coli, pNIC28-Bsa4, N-terminal His6 tag removed by TEV, construct 26672 Da
T4 sequence (P0C024 14-235): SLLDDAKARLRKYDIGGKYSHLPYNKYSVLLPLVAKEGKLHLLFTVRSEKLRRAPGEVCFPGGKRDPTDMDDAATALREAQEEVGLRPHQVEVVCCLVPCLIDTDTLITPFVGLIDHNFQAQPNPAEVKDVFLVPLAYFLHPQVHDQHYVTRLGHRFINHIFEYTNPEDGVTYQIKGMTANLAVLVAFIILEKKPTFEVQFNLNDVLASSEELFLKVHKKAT
Experimental: as §1

in vitro [2] = assay: in vitro; design: species or system CCD841, HEK293; conditions: human, hb2 cells, read-out: HB-2 Cells Viability (%)
in vitro [3] = assay: in vitro; design: species or system HB2, CCD841; conditions: human, hek293 cells

T1 sequence (Q92831 whole entry, the tested form may be a part): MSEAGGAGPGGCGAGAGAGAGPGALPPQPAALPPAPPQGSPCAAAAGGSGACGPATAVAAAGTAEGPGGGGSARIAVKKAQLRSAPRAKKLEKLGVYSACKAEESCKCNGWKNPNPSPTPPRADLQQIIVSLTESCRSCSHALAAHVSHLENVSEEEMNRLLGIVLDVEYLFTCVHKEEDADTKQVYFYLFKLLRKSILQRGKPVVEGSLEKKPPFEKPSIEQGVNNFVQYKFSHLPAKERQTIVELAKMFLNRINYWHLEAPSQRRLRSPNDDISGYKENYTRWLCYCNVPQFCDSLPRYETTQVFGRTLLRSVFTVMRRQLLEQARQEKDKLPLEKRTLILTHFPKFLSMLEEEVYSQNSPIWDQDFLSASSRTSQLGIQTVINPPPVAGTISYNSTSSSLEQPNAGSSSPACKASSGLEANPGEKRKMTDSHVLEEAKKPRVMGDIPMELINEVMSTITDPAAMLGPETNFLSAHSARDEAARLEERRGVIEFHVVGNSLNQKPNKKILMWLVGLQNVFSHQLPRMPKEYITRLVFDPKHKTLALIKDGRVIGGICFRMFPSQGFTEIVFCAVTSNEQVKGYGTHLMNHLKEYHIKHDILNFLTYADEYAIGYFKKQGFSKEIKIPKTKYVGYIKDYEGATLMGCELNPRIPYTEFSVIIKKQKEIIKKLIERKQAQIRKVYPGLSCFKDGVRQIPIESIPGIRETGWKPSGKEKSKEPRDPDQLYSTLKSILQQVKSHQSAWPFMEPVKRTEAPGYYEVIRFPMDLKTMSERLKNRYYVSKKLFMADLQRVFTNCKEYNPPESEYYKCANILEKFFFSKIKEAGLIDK

Row | SMILES | PCAF (PCAF) | OTUB2 (OTUB2 (OTUB2A)) | BSA (BSA) | NUDT7 (NUDT7) | viability at 48 h, 10 µM (in vitro [1]) [%] | viability at 48 h, 10 µM (in vitro [2]) [%] | viability at 48 h, 10 µM (in vitro [3]) [%]
1 | CC(C)c1cc(NC(=O)CCl)on1 [PCM-0102132] | 0 | 0 | 0 | 0 | 69.9 | 70.9 | 70.6
2 | Cl.O=C(CCl)N1CCN(CC(=O)N2CCOCC2)CC1 [PCM-0102133] | 0 | 0.15 | 0 | 0 | 94.8 | 96.6 | 92.7
3 | Cl.O=C(CCl)N1CCN(Cc2c(F)cccc2Cl)CC1 [PCM-0102137] | 0 | 0 | 0 | 0 | 59.5 | 20.8 | 25.8
4 | O=C(CCl)NNC(=O)c1cc2c(s1)CCCC2 [PCM-0102142] | 0 | 1 | 0 | 0.09 | 62.6 | 49 | 52.6
5 | COC(=O)c1c(NC(=O)CCl)sc2c1CCCC2 [PCM-0102143] | 0 | 0.05 | 0 | 0.39 | 68.1 | 31.6 | 8.6
6 | O=C(CCl)Nc1nc2c(F)c(F)c(F)cc2s1 [PCM-0102144] | 0 | 0 | 0.12 | 0.32 | 57.9 | 90.9 | 83.1
7 | Cc1c(C#N)c(NC(=O)CCl)n(-c2cccc(F)c2)c1C [PCM-0102146] | 0 | 0.1 | 0 | 0.58 | 47.1 | 25 | 3.5
8 | Cc1nnc(NC(=O)CCl)o1 [PCM-0102147] | 0 | 0 | 0 | 0 | 107 | 102 | 92.2
9 | O=C(CCl)N1CCC(c2ccccc2)=N1 [PCM-0102150] | 0 | 0 | 0 | 0 | 71.8 | 31.2 | 32.7
10 | O=C(CCl)NC(=O)OCc1ccccc1 [PCM-0102153] | 0 | 0.79 | 0 | 0 | 109 | 96 | 82.8
11 | O=C(CCl)N(CC(F)(F)F)c1ccc(Cl)cc1 [PCM-0102155] | 0 | 0 | 0 | 0.79 | 3.5 | 11.2 | 4.3
12 | CC(NC(=O)CCl)C1CC1 (centres unmarked) [PCM-0102157] | 0 | 0.1 | 0 | 0 | 103 | 87.6 | 111
13 | O=C(CCl)N1CCc2ccccc21 [PCM-0102160] | 0 | 0 | 0 | 0 | 44.6 | 6.1 | 16.3
14 | CCC(C)(C)NC(=O)CCl [PCM-0102161] | 0 | 0.09 | 0 | 0 | 100 | 99.3 | 116
15 | NC(=O)c1c(NC(=O)CCl)sc2c1CCC2 [PCM-0102164] | 0 | 0 | 0 | 0.28 | 25.6 | 27.2 | 2.6
16 | Cc1cc(S(N)(=O)=O)cc(NC(=O)CCl)c1C [PCM-0102165] | 0 | 0.12 | 0 | 0.09 | 61.3 | 34.5 | 8.3
17 | Cc1ccc(NC(=O)NC(=O)CCl)c(C)c1 [PCM-0102171] | 0 | 0.1 | 0 | 0.2 | 53.9 | 78.8 | 74.7

The next lines start with results.

Row | PCAF (PCAF) | OTUB2 (OTUB2 (OTUB2A)) | BSA (BSA) | NUDT7 (NUDT7) | SMILES | viability at 48 h, 10 µM (in vitro [1]) [%] | viability at 48 h, 10 µM (in vitro [2]) [%] | viability at 48 h, 10 µM (in vitro [3]) [%]
18 | 0 | 0.1 | 0 | 0 | O=C(CCl)Nc1ccc(Cl)cc1C(=O)O [PCM-0102127] | 104 | 100 | 86.8
19 | 0 | 0.31 | 0 | 0.07 | CC(=O)N1CCc2cc(NC(=O)CCl)ccc21 [PCM-0102129] | 50.6 | 33.4 | 5.9
20 | 0 | 0 | 0 | 0 | Cc1c(Cl)cccc1NC(=O)CCl [PCM-0102130] | 48.1 | 26 | 4.9
21 | 0 | 0 | 0 | 0 | Cc1ccc(-n2nc(C)c(NC(=O)CCl)c2C)cc1 [PCM-0102131] | 26.3 | 63.8 | 30.1
22 | 0 | 0.11 | 0 | 0.1 | Cc1cc([N+](=O)[O-])ccc1NC(=O)CCl [PCM-0102134] | 60.9 | 44.3 | 18.1
23 | 0 | 0 | 0 | 0 | COc1ccc(NC(=O)CCl)cn1 [PCM-0102140] | 63.7 | 62 | 44.3
24 | 0 | 0 | 0 | 0 | CS(=O)(=O)c1ccccc1NC(=O)CCl [PCM-0102141] | 98.2 | 96.8 | 96.8
25 | 0 | 0.49 | 0 | 0.24 | O=C(CCl)Nc1cccc(I)c1 [PCM-0102154] | 49 | 12.7 | 1.7
26 | 0 | 0.58 | 0 | 0 | NS(=O)(=O)c1cccc(NC(=O)CCl)c1 [PCM-0102162] | 35.4 | 17.4 | 1.1
27 | 0 | 0.16 | 0 | 0 | O=C(CCl)Nc1ccc(O)cc1 [PCM-0102163] | 60.5 | 67.8 | 38.2
28 | 0 | 0 | 0 | 0 | Cc1cccc(C(=O)O)c1NC(=O)CCl [PCM-0102167] | 102 | 101 | 104
29 | 0 | 0 | 0 | 0.4 | Cc1ccc(-c2csc(NC(=O)CCl)n2)cc1 [PCM-0102168] | 67.9 | 5.5 | 5.5

— article PMC6556873, “Rapid Covalent-Probe Discovery by Electrophile-Fragment Screening” (Journal of the American Chemical Society, 2019)
